Patent US20210330611A1, “THERAPY FOR NEUROLOGICAL DISEASES/DISORDERS” (priority 2020, published 2021)
Counter-ions that a name gives are not always drawn. Like-named read-outs stand apart in the source and are kept apart here.

Experiments:
primary rat microglia [1] = system: primary rat microglia
[2] = system: fibrin-induced microglia activation; assay: Image-based assay of fibrin-induced microglia activation (HTS and dose response); format: cell-based, rat; conditions: primary microglia HTS, fibrin stimulation; for inhibition at 10 µM: Rattus norvegicus, Microglia, read-out: Fibrin % inhibition
primary rat microglia [3] = assay: Cell toxicity (dead cells, size <150 μm2) in coated fibrin (cFib) assay; conditions: primary microglia HTS;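 further: share of dead cells sized under 150 µm2 at 10 µM in fibrin-stimulated microglia HTS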
[4] = system: fibrin- and LPS-induced microglia activation; assay: cells; format: cell-based, rat
[5] = system: LPS-induced microglia activation; assay: Image-based assay of LPS-induced microglia activation (HTS and dose response); format: cell-based, rat; conditions: for inhibition at 10 µM: Rattus norvegicus, Microglia, read-out: LPS % inhibition
[6] = fibrin assay, dead cells (size <150 μm2), compounds at 10 μM
[7] = classification by fibrin and LPS inhibition, HTS at 10 μM
[8] = fibrin assay, dead cells (size <150 μm2)
[9] = quadrant by fibrin and LPS inhibition, HTS at 10 μM
[10] = primary microglia HTS, LPS stimulation, compounds at 10 μM
[11] = cell size >800 μm2 as marker of activation
[12] = fibrin stimulation, cell size <150 μm2 as marker of toxicity
[13] = classification by fibrin and LPS inhibition in HTS

| SMILES | LPS % cell toxicity (primary rat microglia [1]; rat) [%] | inhibition at 10 µM ([2]; compounds at 10 μM) [%] | Fibrin % cell toxicity (primary rat microglia [3]; [8]) [%] | Quadrant (FIG. 5b) [4, 9] | inhibition at 10 µM [5, 10] [%] | Fibrin % cell toxicity (primary rat microglia [3]; [12]) [%] | Quadrant (FIG. 5b) [4, 13] | also measured |
| --- | --- | --- | --- | --- | --- | --- | --- | --- |
| C[C@@H](CO)NC(=O)[C@@H]1C=C2c3cccc4[nH]cc(c34)C[C@H]2N(C)C1 [Ergonovine Maleate] | 0 |  |  |  |  |  |  | Fibrin % inhibition ([2]; compounds at 10 μM, 10 µM): 9%; Fibrin % cell toxicity (primary rat microglia [3]; [6]): 1%; Quadrant (FIG. 5b) [4, 7]: Q4; LPS % inhibition ([5]; primary microglia HTS, LPS stimulation, compounds at 10 μM, 10 µM): 7% |
| Cc1c(N(C)C)c(=O)n(-c2ccccc2)n1C [Aminophenazone] | 1 | -41 | 1 | Q4 | 20 |  |  |  |
| OC(CCN1CCCC1)(c1ccccc1)C1CCCCC1 (stereo not shown) [Procyclidine] | 1 |  |  |  |  | 1 | Q4 | inhibition at 10 µM [2, 11]: 0%; inhibition at 10 µM ([5]; 48 h): 26% |
| CN[C@@H]1[C@@H](O)[C@@H](O[C@@H]2[C@@H](O)[C@H](O[C@H]3OC(CN)=CC[C@H]3N)[C@@H](N)C[C@H]2N)OC[C@]1(C)O [Sisomicin Sulfate] | 0 |  |  |  |  | 0 | Q4 | inhibition at 10 µM [2, 11]: -41%; inhibition at 10 µM ([5]; 48 h): 10% |
| NS(=O)(=O)c1cc2c(cc1Cl)N=C(CSCc1ccccc1)NS2(=O)=O [Benzthiazide] | 0 | -8 | 1 | Q4 | 7 |  |  |  |
| Nc1nc(NC2CC2)c2ncn([C@H]3C=C[C@@H](CO)C3)c2n1 [Abacavir Sulfate] | 0 | -2 | 1 | Q4 | 3 |  |  |  |
| CC(O)(CC(=O)O)CC(=O)O [3-Hydroxy-3-Methyl-Glutaric Acid] | 0 | 9 | 0 | Q4 | 8 |  |  |  |
| CC(C)[N+](C)(CCOC(=O)C1c2ccccc2Oc2ccccc21)C(C)C [Propantheline] | 0 |  |  |  |  | 1 | Q4 | inhibition at 10 µM [2, 11]: -7%; inhibition at 10 µM ([5]; 48 h): 20% |
| CCOC(=O)OC(C)OC(=O)[C@@H]1N2C(=O)[C@@H](NC(=O)[C@H](N)c3ccccc3)[C@H]2SC1(C)C (stereo partly shown) [Bacampicillin Hydrochloride] | 0 | -12 | 1 | Q4 | 8 |  |  |  |
| Cc1cc(CC(C)CC(C)(C)C)n(O)c(=O)c1.NCCO (stereo not shown) [Piroctone Olamine] |  |  |  |  |  | 1 | Q4 | LPS % cell toxicity (primary rat microglia [1]): 1%; Fibrin % inhibition [2, 11]: 44%; LPS % inhibition [5]: 39% |
| Cc1ncc(CSSCc2cnc(C)c(O)c2CO)c(CO)c1O [Pyritinol] | 0 |  |  |  |  | 1 | Q4 | inhibition at 10 µM [2, 11]: -15%; inhibition at 10 µM ([5]; 48 h): 4% |
| CC(C)N(CCC(C(N)=O)(c1ccccc1)c1ccccn1)C(C)C (stereo not shown) [Disopyramide] | 0 | -13 |  |  | 1 |  |  | Fibrin % cell toxicity (primary rat microglia [3]; [6]): 1%; Quadrant (FIG. 5b) [4, 7]: Q4 |
| OC1(c2ccc(Cl)c(C(F)(F)F)c2)CCN(CCCC(c2ccc(F)cc2)c2ccc(F)cc2)CC1 [Penfluridol] | 0 |  |  |  |  | 1 | Q4 | inhibition at 10 µM [2, 11]: 3%; inhibition at 10 µM ([5]; 48 h, primary microglia HTS, LPS stimulation, cell size >800 μm2 as marker of activation): 8% |
| CN(C)CCOC(C)(c1ccccc1)c1ccccn1 (stereo not shown) [Doxylamine] | 0 | -45 |  |  | 17 |  |  | Fibrin % cell toxicity (primary rat microglia [3]; [6]): 1%; Quadrant (FIG. 5b) [4, 7]: Q4 |
| CN(CCOc1ccc(NS(C)(=O)=O)cc1)CCc1ccc(NS(C)(=O)=O)cc1 [Dofetilide] | 0 | -26 |  |  | 5 |  |  | Fibrin % cell toxicity (primary rat microglia [3]; [6]): 1%; Quadrant (FIG. 5b) [4, 7]: Q4 |
| COc1ccc2nc3cc(Cl)ccc3c(Nc3cc(CN4CCCC4)c(O)c(CN4CCCC4)c3)c2n1.O=P(O)(O)O.O=P(O)(O)O.O=P(O)(O)O.O=P(O)(O)O [Pyronaridine Tetraphosphate] |  |  |  |  |  | 1 | Q4 | LPS % cell toxicity (primary rat microglia [1]): 0%; Fibrin % inhibition [2, 11]: 16%; LPS % inhibition [5]: 9% |
| Nc1ccc([As](=O)(O)O)cc1 [Arsanilic Acid] | 0 |  | 0 | Q4 |  |  |  | Fibrin % inhibition ([2]; compounds at 10 μM): −42%; LPS % inhibition [5, 10]: 12% |
